Here are results for 2 molecules from ChEMBL document CHEMBL4373639, “How mithramycin stereochemistry dictates its structure and DNA binding function” (Medchemcomm, 2019).

The nature of the assay: Binding affinity to dsDNA oligomer GAGGCCTC (unknown origin) assessed as binding constant incubated for 16 hrs in presence of […] by fluorescence based assay.

Each structure is given as a SMILES string.

For `CO[C@H](C(=O)[C@@H](O)[C@@H](C)O)[C@@H]1Cc2cc3cc(O[C@H]4C[C@@H](O[C@H]5C[C@@H](O)[C@H](O)[C@@H](C)O5)[C@H](O)[C@@H](C)O4)c(C)c(O)c3c(O)c2C(=O)[C@H]1O[C@H]1C[C@@H](O[C@H]2C[C@@H](O[C@H]3C[C@](C)(O)[C@H](O)[C@@H](C)O3)[C@H](O)[C@@H](C)O2)[C@H](O)[C@@H](C)O1`, the Kd – broadly, the concentration at which binding is half-saturated – was below 1 µM. The figure for `COC(=O)[C@H](Cc1ccccc1)NC(=O)[C@@H](OC)[C@@H]1Cc2cc3cc(O[C@H]4C[C@@H](O[C@H]5C[C@@H](O)[C@H](O)[C@@H](C)O5)[C@H](O)[C@@H](C)O4)c(C)c(O)c3c(O)c2C(=O)[C@H]1O[C@H]1C[C@@H](O[C@H]2C[C@@H](O[C@H]3C[C@](C)(O)[C@H](O)[C@@H](C)O3)[C@H](O)[C@@H](C)O2)[C@H](O)[C@@H](C)O1` is 1.6 µM.
